# Test results as given in patent publication US5641758A, “Cytarabine derivatives, the preparation and use thereof” (priority 1994, dated 1997).
# pIC50: −log10 of the molar value. Like-named read-outs stand apart in the source and are kept apart here.
# Experiments:
# CCRF-CEM [1] = assay: MTT dye reduction cytotoxicity assay, CCRF-CEM; format: cell-based; conditions: Homo sapiens
# K562 = assay: MTT dye reduction cytotoxicity assay, K562; format: cell-based; conditions: Homo sapiens
# PC3M = assay: Human tumor xenograft in nude mice, i.p., prostate carcinoma PC3M; format: in vivo; conditions: adenocarcinoma, i.p. 150 mg/kg/day (MTD), days 1,4,7,10
# Method: (§1) 6 to 8 week old nude mice of NMRI genetic background were used for all experiments. Tumors were implanted subcutaneously in both flanks of athymic nude mice. Treatment was started as soon as the tumors reached a median diameter of 6 mm, depending on the doubling time between day 12-42. Mice were randomly assigned to treatment groups and control group (5-6 mice per group bearing 6-12 evaluable tumors).
# (§2) Tumor size was measured by two-dimensional measurement with calipers. The antitumor effect was evaluated following maximal tumor regression, in non-regressing tumors after 3-4 weeks. Relative tumor volume (RTV) values were calculated for each single tumor by dividing the tumor volume day×by the tumor volume day 0 at the time of randomization. Median RTV values were used for further evaluation.
# (§3) Drug therapy was intraperitoneal on day 1,4,7 and 10. The dose of 150 mg/kg/day was considered to be the maximal tolerated dose resulting in a lethality of 14% in tumor-bearing nude mice.
# (§4) Tumor growth inhibition was calculated according to relative tumor volume of control minus test divided by the control group. Furthermore the specific growth delay (SGD) was calculated with regard to the tumor doubling time (DT) by doubling time test group minus control divided by the doubling time of the control group.
# OVXF 1023 = assay: Human tumor xenograft in nude mice, i.p., ovary carcinoma OVXF 1023; format: in vivo; conditions: i.p. 150 mg/kg/day (MTD), days 1,4,7,10
# Method: as §1, §2, §3, §4
# MEXF 276 = assay: Human tumor xenograft in nude mice, i.p., melanoma MEXF 276; format: in vivo; conditions: MEXF 276, amelanotic; i.p. 150 mg/kg/day (MTD), days 1,4,7,10
# Method: as §1, §2, §3, §4
# L1210 leukemia [2] = assay: Oral treatment of L1210 leukemia in BDF1 mice, therapy on days 1-5; format: in vivo, murine (female BDF1 mice); conditions: for T/C, increase of lifespan: including 60 day survivors; for Survivors 60 Days: survivors/group
# Method: The anti-tumor activity of the liposomal drug preparations was evaluated with the murine L1210 leukemia model in female BDF1 mice (Rubas et al., Int. J. Cancer, 37, 149-154 (1986)). The L1210 cells (1×10^5) from donor ascites were injected i.v.
# Control groups of 5-6 mice received ara-C dissolved in phosphate buffer (PB). The animals were observed daily until death or 60 days. Increase in lifespan of the treated animals (T) was compared to that of the untreated controls (C), expressed as T/C in percentages. Animals surviving 60 days were included in the calculation and considered as being cured.
# [3] = Toxicity (lethality, maximal tolerated dose) in tumor-bearing nude mice, i.p.; conditions: mouse, in vivo, ip
# Method: as §1
# Drug therapy was intraperitoneal on day 1,4,7 and 10.
# Toxicity was assessed by lethality within 10 days after last therapy and body weight loss. The body weight of the nude mice was measured weekly, for rapidly growing tumor lines, measurements were done twice weekly.
# MAXF 401 = assay: Human tumor xenograft in nude mice, i.p., mammary carcinoma MAXF 401; format: in vivo; conditions: MAXF 401, adenocarcinoma; i.p. 150 mg/kg/day (MTD), days 1,4,7,10
# Method: as §1, §2, §3, §4
# HL-60 [4] = assay: MTT dye reduction cytotoxicity assay, HL-60; format: cell-based; conditions: Homo sapiens
# LXFL 529 = assay: Human tumor xenograft in nude mice, i.p., lung carcinoma LXFL 529; format: in vivo; conditions: LXFL 529, large cell; i.p. 150 mg/kg/day (MTD), days 1,4,7,10
# Method: as §1, §2, §3, §4
# L1210 leukemia [5] = assay: Intravenous treatment of L1210 leukemia in BDF1 mice; format: in vivo, murine (female BDF1 mice); conditions: i.v.; for T/C, increase of lifespan: including 60d survivors; for Survivors 60 Days: survivors/group
# CCRF-CEM [6] = assay: Human tumor xenograft in nude mice, i.p., leukemia CCRF-CEM; format: in vivo; conditions: acute lymphatic leukemia, i.p. 150 mg/kg/day (MTD), days 1,4,7,10
# Method: as §1, §2, §3, §4
# LXFS 605 = assay: Human tumor xenograft in nude mice, i.p., lung carcinoma LXFS 605; format: in vivo; conditions: LXFS 605, small cell; i.p. 150 mg/kg/day (MTD), days 1,4,7,10
# Method: as §1, §2, §3, §4
# CCRF-CEM (dcK)^- = assay: MTT dye reduction cytotoxicity assay, CCRF-CEM deoxycytidine kinase deficient cell line; format: cell-based; conditions: Homo sapiens
# HL-60 [7] = assay: Human tumor xenograft in nude mice, i.p., leukemia HL-60; format: in vivo; conditions: HL-60, acute promyelocytic leukemia; i.p. 150 mg/kg/day (MTD), days 1,4,7,10
# Method: as §1, §2, §3, §4
# U937 = assay: MTT dye reduction cytotoxicity assay, U937; format: cell-based; conditions: Homo sapiens, U-937
# cytosine deaminase = conditions: in the body, in words; cited from earlier work
# [8] = total dose 200 μmol/kg (49 mg/kg)
smiles,measurement,setting,value
"CCCCCCCCCCCCCCCCCCNc1ccn([C@@H]2O[C@H](CO)[C@@H](O)[C@@H]2O)c(=O)n1 [NOAC, 4-(1-octadecylamino)-1-β-D-arabinofuranosyl-2(1H)-pyrimidinone]",pIC50,"CCRF-CEM [1]; MTT assay, read-out: IC50",4.30
same,pIC50,"K562; K562, MTT assay, read-out: IC50",> 3.70
same,Growth inhibition,PC3M,83%
same,Growth inhibition,OVXF 1023,45%
same,Growth inhibition,MEXF 276,39%
same,"Survival Time, Mean ± SD",L1210 leukemia [2]; total dose 1 mmol/kg,54 ± 15 days
same,"T/C, increase of lifespan",L1210 leukemia [2]; total dose 1 mmol/kg,673%
same,Survivors 60 Days,L1210 leukemia [2]; total dose 1 mmol/kg,5/6
same,"Survival Time, Mean ± SD",L1210 leukemia [2]; total dose 2 mmol/kg,55 ± 12 days
same,"T/C, increase of lifespan",L1210 leukemia [2]; total dose 2 mmol/kg,689%
same,Survivors 60 Days,L1210 leukemia [2]; total dose 2 mmol/kg,5/6
same,MTD,"[3]; days 1,4,7 and 10, tumor-bearing nude mice",150 mg/kg/day
same,mortality,"[3]; 150 mg/kg/day i.p., tumor-bearing nude mice",14%
same,Growth inhibition,MAXF 401,85%
same,pIC50,"HL-60 [4]; HL-60, MTT assay, read-out: IC50",> 4.30
same,Growth inhibition,LXFL 529,79%
same,effect compared with ara-C and N^4-hexadecyl-ara-C,"L1210 leukemia [5]; results of Table 2, in words","superiority of NOAC over the prior art compounds, ara-C and N^4 -hexadecyl-ara-C"
same,"Survival Time, Mean ± SD",L1210 leukemia [5]; total dose 50 μmol/kg,52.1 ± 19.2 days
same,"T/C, increase of lifespan",L1210 leukemia [5]; total dose 50 μmol/kg,744%
same,Survivors 60 Days,L1210 leukemia [5]; total dose 50 μmol/kg,5/6
same,"Survival Time, Mean ± SD",L1210 leukemia [5]; total dose 100 μmol/kg,60 days
same,"Survival Time, Range",L1210 leukemia [5]; total dose 100 μmol/kg,> 60 days
same,"T/C, increase of lifespan",L1210 leukemia [5]; total dose 100 μmol/kg,857%
same,Survivors 60 Days,L1210 leukemia [5]; total dose 100 μmol/kg,6/6
same,Growth inhibition,CCRF-CEM [6],96%
same,Growth inhibition,LXFS 605,73%
same,pIC50,CCRF-CEM (dcK)^-,> 3.85
same,Growth inhibition,HL-60 [7],97%
same,pIC50,"U937; U937, MTT assay, read-out: IC50",> 4.00
"CCCCCCCCCCCCCCCCNc1ccn([C@@H]2O[C@H](CO)[C@@H](O)[C@@H]2O)c(=O)n1 [N^4 -Hexadecyl-ara-C, 4-(1-hexadecylamino)-1-β-D-arabinofuranosyl-2(1H)-pyrimidinone]","Survival Time, Mean ± SD",L1210 leukemia [5]; total dose 50 μmol/kg,10.6 days
same,"Survival Time, Range",L1210 leukemia [5]; total dose 50 μmol/kg,10 to 11 days
same,Survivors 60 Days,L1210 leukemia [5]; total dose 50 μmol/kg,0/5
same,"Survival Time, Mean ± SD",L1210 leukemia [5]; total dose 100 μmol/kg,12.0 days
same,"Survival Time, Range",L1210 leukemia [5]; total dose 100 μmol/kg,11 to 16 days
same,Survivors 60 Days,L1210 leukemia [5]; total dose 100 μmol/kg,0/5
"Nc1ccn([C@@H]2O[C@H](CO)[C@@H](O)[C@@H]2O)c(=O)n1 [ara-C, 4-amino-1-β-D-arabinofuranosyl-2(1H)-pyrimidinone, reference compound]",pIC50,CCRF-CEM [1],> 6.00
same,pIC50,K562; K562,< 3.40
same,"Survival Time, Mean ± SD",L1210 leukemia [2]; total dose 2 mmol/kg,13 ± 17 days
same,"Survival Time, Range",L1210 leukemia [2]; total dose 2 mmol/kg,10 to 52 days
same,"T/C, increase of lifespan",L1210 leukemia [2]; total dose 2 mmol/kg,221%
same,Survivors 60 Days,L1210 leukemia [2]; total dose 2 mmol/kg,0/6
same,deamination by cytosine deaminase,cytosine deaminase,rapidly undergoes deamination
same,pIC50,HL-60 [4]; HL-60,< 3.70
same,"Survival Time, Mean ± SD",L1210 leukemia [5]; [8],19.8 ± 19.7 days
same,"T/C, increase of lifespan",L1210 leukemia [5]; [8],282%
same,Survivors 60 Days,L1210 leukemia [5]; [8],1/6
same,pIC50,U937,< 3.70
